Drawing on ChEMBL document CHEMBL1125820, “Structure-activity relationship of mutagenic aromatic and heteroaromatic nitro compounds. Correlation with molecular orbital energies and hydrophobicity” (J Med Chem, 1991), this text covers logP and Activity for 38 compounds.

The nature of series [1]: Partition coefficient (logP). Conditions: octanol/water; call rule not given here.
Series [2] has as its system Salmonella typhimurium. The series can be described thus: Mutagenic activity in an Ames test on Salmonella Typhimurium TA98; Activity is log of revertants/nmol. It is filed as functional, Salmonella enterica subsp. enterica serovar Typhimurium. The arrangement: scale not given here. Background: The Ames test detects mutagens through reverse mutation in bacteria.
Series [3] deals with Salmonella typhimurium. The series can be described thus: Mutagenic activity in Salmonella Typhimurium TA98 using Ames test; Activity is log of revertants / nmol; a= inactive. It is filed as functional, Salmonella enterica subsp. enterica serovar Typhimurium.

For orientation: logP means the decadic logarithm of the partition coefficient of the neutral form, usually between octanol and water. As for `O=[N+]([O-])c1ccc2c(c1)CCc1ccccc1-2`, in series [1], the log partition coefficient (logP) was found to be 4.53. In the series on Salmonella typhimurium [2], this compound registered an Activity of 1.99.

In series [1], `Nc1ccc([N+](=O)[O-])cc1O` yielded a lipophilicity (logP) of 1.36. Also, the Activity in the series with Salmonella typhimurium [2] was -2.4.

In series [1], `O=[N+]([O-])c1ccc2ccc3cc4c(c5ccc1c2c35)CCCC4` returned a logP of 6.57. In the series with Salmonella typhimurium [2], this compound gave an Activity of 0.9.

In series [1], `O=[N+]([O-])c1c2c3c(ccc4cccc(c43)CC2)c2ccccc12` yielded a logP of 6.16. The same compound had an Activity in the series on Salmonella typhimurium [2] of 0.3.

`CC(=O)Oc1ccc2c(c1)Cc1cc([N+](=O)[O-])ccc1-2`: the logP in series [1] turned out to be 3.46. Besides, the Activity in the series on Salmonella typhimurium [2] is listed as 1.86.

With `O=[N+]([O-])c1cccc2ccccc12`, the logP in series [1] amounted to 3.19. Moreover, the Activity in the series on Salmonella typhimurium [2] is -0.61.

`O=[N+]([O-])c1c2ccccc2cc2ccccc12` had a logP in series [1] of 4.78. Besides, the Activity with Salmonella typhimurium [3] is -0.95.

For the compound `O=[N+]([O-])c1cc2c3c(cc([N+](=O)[O-])cc3c1)-c1ccccc1-2`, the logP in series [1] was found to be 4.44. This compound also gave an Activity in the series with Salmonella typhimurium [2] of 2.32.

Compound `CN1Cc2cccc([N+](=O)[O-])c2N1` gave a logP in series [1] of 1.77. In the series on Salmonella typhimurium [2], this compound returned an Activity of 0.23.

Regarding `O=[N+]([O-])c1ccc2c3c(cccc13)C=C2`, the log partition coefficient (logP) in series [1] worked out at 3.36. The compound further yielded an Activity in the series with Salmonella typhimurium [2] of 1.91.

In series [1], `O=[N+]([O-])c1ccc2cc3ccccc3cc2c1` gave a lipophilicity (logP) of 4.23. In the series with Salmonella typhimurium [2], the Activity came to 2.95.

Compound `O=[N+]([O-])c1cc(O)c2ccc3cccc4ccc1c2c34` gave a logP in series [1] of 4.66. Further, the Activity in the series on Salmonella typhimurium [2] came to 3.87.

As to `O=[N+]([O-])C1=CC2Nc3cc([N+](=O)[O-])ccc3NC2C=C1` (stereo unspecified), the logP in series [1] was 2.29. The compound further gave an Activity with Salmonella typhimurium [2] of 2.75.

Take `N#Cc1ccc2c(c1)Cc1cc([N+](=O)[O-])ccc1-2`: the logP in series [1] is 3.4. This compound also registered an Activity in the series on Salmonella typhimurium [2] of 2.51.

The compound `O=[N+]([O-])c1ccc2oc3ccccc3c2c1` had a logP in series [1] of 3.83. In addition, the Activity with Salmonella typhimurium [2] was 1.64.

`O=[N+]([O-])c1cc2c3c(ccc4cc([N+](=O)[O-])cc(c43)CC2)c1` yielded a logP in series [1] of 4.73. Moreover, the Activity with Salmonella typhimurium [2] was 4.25.

In turn, `Cc1ccc2cccc([N+](=O)[O-])c2n1` yielded a logP in series [1] of 1.99. In addition, the Activity with Salmonella typhimurium [2] is reported as -2.7.

With `O=[N+]([O-])c1cc2ccccc2c2ccc3ccccc3c12`, the logP in series [1] worked out at 5.41. The Activity in the series on Salmonella typhimurium [2] was -0.22.

For the compound `O=[N+]([O-])C1=Cc2c3ccc4ccccc4c3cc3cccc1c23`, in series [1], the logP was 5.07. In addition, the Activity in the series with Salmonella typhimurium [2] worked out at 0.86.

With `O=C(/C=C/c1ccccc1)c1ccc([N+](=O)[O-])cc1`, the logP in series [1] was 2.83. The Activity with Salmonella typhimurium [2] is -1.15.

In series [1], `O=[N+]([O-])c1ccc2ccc3c4c(cc5ccc1c2c53)C=CC(O)C4O` (stereo unspecified) displayed a logP of 3.01. In addition, the Activity with Salmonella typhimurium [2] is 2.8.

As to `O=[N+]([O-])c1ccc2ccc3c(O)ccc4ccc1c2c43`, the logP in series [1] stood at 4.19. The compound also came in with an Activity in the series with Salmonella typhimurium [2] of 1.34.

Turning to `O=[N+]([O-])c1c(Cl)cc2c(c1Cl)Oc1cc(Cl)c(Cl)cc1O2`, the logP in series [1] stood at 7.13. Also, the Activity in the series with Salmonella typhimurium [2] is given as -1.4.

As to `O=[N+]([O-])c1nc2ccccc2[nH]1`, the logP in series [1] was determined as 1.59. In the series on Salmonella typhimurium [2], the Activity amounted to 0.

Take `Nc1cccc(-c2cccc([N+](=O)[O-])c2)c1`: the logP in series [1] turned out to be 2.68. Further, the Activity in the series on Salmonella typhimurium [2] is -1.7.

`Cn1ncc2cccc([N+](=O)[O-])c21`: the log partition coefficient (logP) in series [1] was found to be 1.77. The Activity in the series on Salmonella typhimurium [2] is on record as -1.

With `O=[N+]([O-])c1cc(Cl)ccc1Cl`, in series [1], the logP worked out at 2.9. Also, the Activity in the series with Salmonella typhimurium [2] is on record as -1.54.

In turn, `Nc1ccc([N+](=O)[O-])cc1N` came in with a lipophilicity (logP) in series [1] of 0.88. In the series with Salmonella typhimurium [2], this compound had an Activity of 0.63.

The compound `O=[N+]([O-])c1ccc2c3c(c4cccc5ccc1c2c54)CCCC3` returned a logP in series [1] of 6.26. The same compound registered an Activity in the series on Salmonella typhimurium [2] of 0.78.

In series [1], `O=[N+]([O-])c1ccc2ccc3cccc4ccc1c2c34` [1-NITROPYRENE] had a logP of 4.69. The compound further registered an Activity in the series with Salmonella typhimurium [2] of 2.78.

On to `COc1ccccc1[N+](=O)[O-]` [2-NITROANISOLE], for which the logP in series [1] came to 1.73. Besides, the Activity with Salmonella typhimurium [2] is -2.7.

`O=[N+]([O-])c1ccc2c(c1)Cc1ccccc1-2` [2-NITROFLUORENE] came in with a logP in series [1] of 3.37. Moreover, in the series with Salmonella typhimurium [2], the Activity is recorded as 1.43.

In series [1], `Nc1ccc(Cl)cc1[N+](=O)[O-]` [4-CHLORO-2-NITROANILINE] showed a logP of 2.72. In addition, the Activity in the series with Salmonella typhimurium [2] is reported as -2.

In the case of `O=C1Nc2ccc([N+](=O)[O-])cc2C1=O` [5-NITROISATIN], the logP in series [1] was determined as 0.47. Besides, in the series on Salmonella typhimurium [2], the Activity is reported as -0.94.

`O=[N+]([O-])c1cccc2cn[nH]c12` [7-NITROINDAZOLE] came in with a logP in series [1] of 1.75. The Activity in the series with Salmonella typhimurium [2] was 0.11.

In turn, `O=[N+]([O-])c1ccc(Cl)c([N+](=O)[O-])c1` [DINITROCHLOROBENZENE] had a logP in series [1] of 2.17. The compound further gave an Activity with Salmonella typhimurium [2] of 0.3.

Compound `O=C1NCCN1c1ncc([N+](=O)[O-])s1` [NIRIDAZOLE] had a logP in series [1] of 0.95. The Activity with Salmonella typhimurium [2] was determined as 2.59.

In the case of `NC(=O)N/N=C/c1ccc([N+](=O)[O-])o1` [NITROFURAZONE], the log partition coefficient (logP) in series [1] amounted to 0.23. This compound also came in with an Activity in the series with Salmonella typhimurium [2] of 1.02.
